Assay results taken from article PMC12040169 (PLOS Biology, 2025).

Assay: in vitro
Settings: human, hela cells, % viability

Compound | viability at 28.5 h, 10 µM [%]
COc1ccccc1C1(O)CCN(CC(O)c2ccc(C(C)(C)C)cc2)CC1 (centres unmarked) [CBK286335] | 96.2
Cc1ccc(-c2ccc(N3CCN(C(=O)c4ccco4)CC3)nc2)cc1C [CBK037775] | 106
C=CCSc1nc2sc3c(c2c(=O)[nH]1)CCCC3 [CBK287344] | 110
CC(=O)Nc1ccc(N2CC34C=CC(O3)C(C(=O)O)C4C2=O)cc1 (centres unmarked) [CBK287020] | 100
Cc1cccn2c(CN3CC(O)C3)c(C(=O)N3CCOCC3)nc12 [CBK306857] | 104
O=C(CSCc1cccc2ccccc12)Nc1c[nH]c(=O)[nH]c1=O [CBK268500] | 103
CC1=C[C@@H](CO)[C@H](C(C)C)C[C@H]1CC(=O)NCc1cccnc1 [CBK289218] | 81.7
O=C(CSCc1ccc(Br)cc1)N1CCN(Cc2ccc3c(c2)OCO3)CC1 [CBK268059] | 89.7
NCCOc1ncccc1OCc1ccccc1 [CBK036305] | 90.7
Cc1cc2nc(CC(=O)NN)[nH]c2cc1C [CBK012180] | 89.3
Cc1cc(C(=O)N2CCC(C(=O)NC(c3ccccc3)c3ccc4ccccc4n3)CC2)no1 (centres unmarked) [CBK059641] | 100
CCCC(=O)NC1CC(C)(C)Cc2nc(N3CCOCC3)ncc21 (centres unmarked) [CBK306883] | 94.7
O=C(CN1C(=O)[C@H]2CCCN2c2ncccc21)NCCc1c[nH]c2ccccc12 [CBK286206] | 107
O=C(OCc1csc2ccc(Cl)cc12)N1CCOCC1 [CBK200164] | 94.7
COc1ccc(-c2ccccc2CC2(C(=O)NCc3cccs3)CCOCC2)cc1 [CBK286429] | 92.3
Cc1ccc2nc(Cn3cc(-c4cnn(Cc5ccccc5)c4)cn3)cn2c1 [CBK297125] | 90.4
Cn1c2c(c(=O)n(C)c1=O)CN(CCN1CCNCC1)CN2 [CBK265218] | 104
COc1cccc(CN2CCN(CC(=O)N3CCCC3)[C@@H](C)C2)c1 [CBK286171] | 78.1
O=C(CNC(=O)c1ccc2c(c1)OCCO2)N/N=C/c1cccs1 [CBK261987] | 86.5
CC1(C)C2CCC1(CS(=O)(=O)N(Cc1ccccc1)Cc1ccccc1)C(=O)C2 (centres unmarked) [CBK266082] | 107
CC(C)N(CCOc1nccnc1-c1ccsc1)C(C)C [CBK106777] | 111
COc1ccc(C(NC(=O)Cn2cccnc2=O)C2CC(O)C2)cn1 (centres unmarked) [CBK307527] | 83.4
O=[N+]([O-])c1cccc(-c2csc(N/N=C\c3cccc(O)c3)n2)c1 [CBK263418] | 95.5
CC(C)CC(=O)N1CCCC(n2c(=O)oc3ccc(Cl)cc32)C1 (centres unmarked) [CBK282891] | 89.3
O=C(NCC1(c2ccccc2F)CCCC1)c1cc[nH]c(=O)c1 [CBK281378] | 112
CCN(C(=O)c1ccncc1)C(CC1CCCCC1)c1ccccc1 (centres unmarked) [CBK061674] | 86.9
CCC1CCCCN1C(=O)c1cc(Br)c(Br)s1 (centres unmarked) [CBK089360] | 92.5

Compound | viability at 28.5 h, 10 µM [%]
CC(C)Cc1ccc(-c2cc(NCCc3ccccn3)ncn2)cc1 [CBK091088] | 99.6
Cc1ccc2oc([C@H]3CCN(S(C)(=O)=O)C3)nc2c1 [CBK289371] | 97.2
CCCCN1C(=S)SC(C)(C)C1N(O)C(=O)C1CCCCC1 (centres unmarked) [CBK008915] | 95.6
CCN1CCCC(CNS(=O)(=O)c2cc(-n3cccn3)ccc2OC)C1 (centres unmarked) [CBK306997] | 85.3
Cn1cc(CN2C[C@H]3CN(C(=O)C4CCC4)C[C@@]3(C(=O)O)C2)cc1C#N [CBK307105] | 101
CC(=O)Nc1ccc(N2C(=O)CSC2c2ccccc2[N+](=O)[O-])cc1 (centres unmarked) [CBK294443] | 110
COCCn1c(=O)[nH]c2ncc(-c3ccc4c(c3)OCO4)nc21 [CBK064164] | 95.8
Cc1c(C(=O)N2CCC(N3CCSCC3)CC2)[nH]c2c(F)cccc12 [CBK307065] | 96.8
Cc1cc(NC(=O)C2CCN(CC3CCCO3)CC2)no1 (centres unmarked) [CBK305544] | 110
Nc1ncc(-c2ccccc2CO)nc1NC1CCOCC1 [CBK063799] | 98.7
CC1CCCN(C(=O)CCc2nc3sc4c(c3c(=O)[nH]2)CCCC4)C1 (centres unmarked) [CBK306073] | 87.5
CN(CCN1CCCCC1)C(=O)c1c2c(nn1C)CCCC2 [CBK281905] | 102
Cn1nccc1CN1CCOC(c2nc(C(C)(C)C)cs2)C1 (centres unmarked) [CBK304690] | 93.7
Cc1ncsc1C(=O)NCc1ccc(S(=O)(=O)N2CCCCC2)cc1 [CBK305556] | 89.9
Cc1cccc(N(CC(O)CN2C(=O)NC(C)(C)C2=O)S(=O)(=O)c2ccccc2)c1 (centres unmarked) [CBK263582] | 103
O=C(NC1CC1)[C@H]1C=CCN1C(=O)c1cccs1 [CBK284324] | 94.7
CC(=O)Nc1ccc(-c2cncc(NC(C)CCCC(C)(C)O)n2)cc1 (centres unmarked) [CBK065894] | 91.1
c1ccc(-c2cnc3c(N4CCCC4)nc(-c4cccnc4)cn23)cc1 [CBK092245] | 86.7
CCc1cc(-c2n[nH]c(C(=O)O)c2-c2nc(C)cs2)c(O)cc1O [CBK268247] | 99.4
COc1ccc(CN(Cc2cccs2)[C@@H]2COC[C@H]2c2ccc(F)cc2)cc1 [CBK286487] | 90.6
Cc1nccc(C(=O)N2CCC3(C/C=C/C[C@H]4COCC[C@H]4NC(=O)CNC3=O)CC2)n1 [CBK292072] | 103
CC(=O)c1ccccc1-c1ccc(C(=O)NCCc2ccccn2)c(NCC2CC2)n1 [CBK076580] | 98.8
COC(=O)c1c(NC(=O)COc2ccccc2Cl)sc2c1CCC(c1ccccc1)C2 (centres unmarked) [CBK265456] | 90.3
Cc1nc(C)c(CCC(=O)NC2CCCc3ccccc32)c(=O)[nH]1 (centres unmarked) [CBK295600] | 98.7
COc1ccccc1C(NC(=O)C1CCN(C(=O)OC(C)C)CC1)c1ccccn1 (centres unmarked) [CBK059649] | 111
Cc1ccc(OCc2occc2C(=O)N2CCCC3(CCOC3)C2)cc1 (centres unmarked) [CBK307532] | 89.4
O=C(COc1ccc(S(=O)(=O)N2CCCCC2)cc1)Nc1ccc2c(c1)OCCO2 [CBK268205] | 102

Compound | viability at 28.5 h, 10 µM [%]
Cc1occc1C(=O)Nc1cnn(CCCC(=O)O)c1 [CBK270116] | 89.4
COc1ccc(CN2CCC(N3CCc4ccccc4C3)CC2)cc1OCc1ccccc1 [CBK264629G] | 91.4
CNC(=O)C1(Cc2ccc(-c3ccccc3)cc2)CCN(C(=O)c2ccccc2OC)CC1 [CBK285767] | 85.9
O=C(Nc1cc(Oc2cccnc2)cc([N+](=O)[O-])c1)c1sc2ccccc2c1Cl [CBK300485] | 106
c1ccc(CCNC2CCCc3c2[nH]c2ccc(C4CCCCC4)cc32)cc1 (centres unmarked) [CBK261602C] | 90.7
COc1ncc(-c2nccnc2NCc2cccnc2)c(OC)n1 [CBK036817] | 101
COc1cc2c(cc1OC)C(CCN1CCN(c3ccccc3C)CC1)OCC(C)(C)C2 (centres unmarked) [CBK024043C] | 98.5
OCCN1CCN(c2ncnc3scc(-c4ccccc4)c23)CC1 [CBK287582] | 94.6
COC(=O)c1cc(=O)c2ccccc2o1 [CBK000064] | 91.8
CC(=O)Nc1ccc(NC(=O)C2COc3ccccc3O2)cc1C (centres unmarked) [CBK269898] | 99.1
CCN1CCN(C(=O)c2ccc(N(C)C)cc2)CC1 [CBK200252] | 96.4
O=C(Nc1ccc2c(c1)OCCO2)c1cnccn1 [CBK220830] | 92.8
CCCN1CC(NS(=O)(=O)c2ccnn2CCC)CC1=O (centres unmarked) [CBK306598] | 92.9
CC(C)NS(=O)(=O)c1ccc(NC(=O)COc2ccc3ccccc3c2Br)cc1 [CBK267920] | 94.3
Cc1cnc(C(=O)NC2(c3ccc(Cl)cc3)CCC2)cn1 [CBK282775] | 95.2
O=C(CSC1c2ccccc2Oc2ccccc21)Nc1cccc(C(=O)O)c1 [CBK266566] | 97.9
CCc1nc2ccc(C(=O)Nc3ccc(C(N)=O)cc3)cn2c1N(CCN(C)C)CC1CC1 [CBK145468] | 87.1
O=C(NCc1cccs1)C1(Cc2cccc(-c3ccc(F)c(F)c3)c2)CCOCC1 [CBK285569] | 93.2
COc1ccc(C2=C(CC(=O)O)C(=O)CC2)cc1 [CBK264812] | 89.2
N#CCCCN1CCC(Oc2nccnc2OCc2cccc(Cl)c2)CC1 [CBK153642] | 90.6
CCOC(=O)c1c[nH]c2nc(COc3ccccc3)nn2c1=O [CBK268088] | 107
Cc1csc(C(Cc2ccsc2)NC(=O)c2scnc2C)n1 (centres unmarked) [CBK285098] | 106
CC(NC(=O)CCc1cc2n(n1)CCNC2)c1cn2ccsc2n1 (centres unmarked) [CBK306551] | 91.2
O=C(NC1CCCCC1)N1Cc2nc[nH]c2C[C@H]1c1nc(-c2ccc3c(c2)OCO3)no1 [CBK289000] | 95.7
O=c1cc(O)c2cc([N+](=O)[O-])ccc2n1CCc1ccccc1 [CBK291165] | 90.8
O=C1CC(Cl)Sc2sc3ccccc3c21 (centres unmarked) [CBK006551] | 86.6
